What was measured:
[1] = same transimination equilibrium: L1 (bis-hexylimine calix[4]arene) + diamine 3 = C1 + 2 hexylamine; conditions: the molecule shown is the open-chain precursor, CD3CN, 2.5 mM, 25.0 °C, 2 steps
[2] = reversible transimination ring closure of 1,3-distal diimine cone-calix[4]arene (tetrakis(2-ethoxyethoxy)) with alpha,omega-diaminoalkanes H2N(CH2)nNH2, displacing hexylamine chain stopper; no catalyst; thermodynamic equilibrium in dynamic library; conditions: the molecule shown is the open-chain precursor, CD3CN, 2.5 mM, 25.0 °C

With `CCCCCC/N=C/c1cc2c(OCCOCC)c(c1)Cc1cccc(c1OCCOCC)Cc1cc(/C=N/CCN)cc(c1OCCOCC)Cc1cccc(c1OCCOCC)C2` [C1a (diamine 3a, n=2)] as the compound, how does the ring closure, K ([1]; 17-membered ring) read?
Its ring closure, K is 0.025 M.

What about the ring closure, effective molarity ([2]; 17-membered ring) of the same compound?
Its ring closure, effective molarity is 0.05 M.

For `CCCCCC/N=C/c1cc2c(OCCOCC)c(c1)Cc1cccc(c1OCCOCC)Cc1cc(/C=N/CCCN)cc(c1OCCOCC)Cc1cccc(c1OCCOCC)C2` [C1b (diamine 3b, n=3)], which ring closure, K ([1]; 18-membered ring) is on record?
The ring closure, K was 0.9 M.

And the ring closure, effective molarity ([2]; 18-membered ring)?
Its ring closure, effective molarity is 0.5 M.

What does the source list for `CCCCCC/N=C/c1cc2c(OCCOCC)c(c1)Cc1cccc(c1OCCOCC)Cc1cc(/C=N/CCCCN)cc(c1OCCOCC)Cc1cccc(c1OCCOCC)C2` [C1c (diamine 3c, n=4)]?
ring closure, K ([1]; 19-membered ring): 0.03 M; ring closure, effective molarity ([2]; 19-membered ring): 0.01 M

For `CCCCCC/N=C/c1cc2c(OCCOCC)c(c1)Cc1cccc(c1OCCOCC)Cc1cc(/C=N/CCCCCN)cc(c1OCCOCC)Cc1cccc(c1OCCOCC)C2` [C1d (diamine 3d, n=5)], which ring closure, K ([1]; 20-membered ring) is on record?
The ring closure, K was 3 M.

And the ring closure, effective molarity ([2]; 20-membered ring)?
The ring closure, effective molarity was 1.5 M.

Which results are given for `CCCCCC/N=C/c1cc2c(OCCOCC)c(c1)Cc1cccc(c1OCCOCC)Cc1cc(/C=N/CCCCCCN)cc(c1OCCOCC)Cc1cccc(c1OCCOCC)C2` [C1e (diamine 3e, n=6)]?
ring closure, K ([1]; 21-membered ring): 0.026 M; ring closure, effective molarity ([2]; 21-membered ring): 0.01 M

— article PMC5424495
